Experimental data as given in US20240374738A1, “BIFUNCTIONAL COMPOUND CAPABLE OF DEGRADING RECEPTOR TYROSINE KINASE AND APPLICATION THEREOF” (TAIBIDI PHARMACEUTICAL TECHNOLOGY (SHIJIAZHUANG) CO., LTD., priority 2023, published 2024).

How the values were obtained:
Format in all cases: cell-based
DDR1 = DDR1 (Homo sapiens, UniProt Q08345); assay: Degradation of DDR1 in tumor cell MKN45 (Western blot); set-up: The degradation activity of the compounds against DDR1 in the MKN45 cell line; endogenous in cells; host or cells: MKN45; details: MKN-45, maximum degradation percentage, MKN45 cells, 24 hours
Description: Western blot experiment: Take gastric cancer cells (MKN45) and inoculate them into a 6-well plate at a concentration of […], adding 2 ml to each well and incubating for 24 hours.
The next day, observe the cells under a microscope to confirm their status. Prepare compounds, weigh a certain amount of the series compounds or reference drug cabozantinib from this patent, first prepare a high concentration mother liquor with pure DMSO, and use gradient dilution method to prepare compound concentrations of 2 mM, 200 μM, 100 μM, 20 μM, 2 μM, 200 nM, and 0 nM. The final concentration of DMSO is 0.5%. Shake to thoroughly mix. Add 10 μl of solution to each well. After incubation for 24 hours, remove the cells and use a pipette to aspirate the suspended cells into a 1.5 ml centrifuge tube. Centrifuge at 5000 rpm for 10 minutes to precipitate the cells. Carefully remove the cell precipitate from the culture medium, add 1 ml of PBS and shake slightly. After repeated cleaning for 3 times, dry the residue. Add 150 μl of RIPA lysate pre mixed with 1% PMSF, blow to allow the lysate to fully contact the cells, and incubate on ice for 10 minutes. Centrifuge at 12000 rpm for 10 minutes, extract the supernatant, use the BCA protein quantification kit to determine and homogenize the sample loading.
Mix BCA-A in a 50:1 ratio Prepare working solution with B solution, dilute the sample by 5 times, then pipette 20 μl onto a 96 well ELISA plate. Add 200 μl of pre mixed BCA working solution and incubate at 37° C. for 20 minutes. Measure the A562 nm absorbance value using an ELISA reader and substitute it into the protein standard curve formula to obtain the sample concentration. After calculating the required volume for loading […] of sample, divide the sample into 1.5 ml centrifuge tubes. Add 10 μl of sample buffer to each tube and mix well. Heat in a 95° C. metal bath for 5 minutes to denature the protein.
Take 4-20% gradient pre adhesive and fix it on the adhesive rack. Add electrophoresis solution to the slot and remove the comb, Marker and protein samples were loaded, and after 30 minutes of electrophoresis at 80V, the voltage was adjusted to 120V for electrophoresis, The marker band stops electrophoresis at the forefront of the gel. Take out the adhesive block and cut it to the appropriate size, The PVDF membrane was cut and activated in methanol, and after activation, the PVDF membrane was equilibrated in a membrane transfer equilibrium solution for 1 minute. Using sponge pads The sequence of PVDF film, adhesive, and sponge pad is placed in the splint and placed in the eBlot equipment for rapid wet rotation. Remove the membrane and seal it in 5% skim milk powder dissolved in 1×TBST for 1 hour. Cut the membrane according to the molecular weight of the target protein and internal reference protein, and place it in primary antibody diluted with 1×TBST. Shake overnight at 4° C.
The next day, transfer the band to 1×TBST for 3 washes, then add a specific dilution of the secondary antibody and shake it for 1.5 hours. Transfer the band again to 1×TBST for 3 washes, prepare ECL color solution, place the membrane in the imaging system, cover the surface with ECL color solution, and take photos of the membrane using the imaging system.
Using the SHST analysis system to analyze the results, measure the grayscale values of each band of the target protein and internal reference protein. Normalize the grayscale values of the target protein/corresponding lane GAPDH grayscale values, and perform quantitative analysis according to the protein amount=experimental group grayscale value/blank control group grayscale value.
The activity of the compound of the present invention in degrading DDR in tumor cell line MKN45 was measured. […]

SNU5 = assay: Growth inhibition of gastric cancer cells SNU5 (CCK-8); details: Homo sapiens, SNU-5, half inhibitory concentration, 72 hours
Description: (§1) Inoculate gastric cancer cells (SNU5 or MKN45) into a 96 well plate at a concentration of […], with 100 μl added to each well. Incubate for 30 minutes. Observe the cell status under a microscope. Prepare compounds, weigh a certain amount of the series compounds or reference drug cabozantinib of this patent, first prepare a high concentration mother liquor with pure DMSO, and use gradient dilution method to prepare a concentration of 200 μM, 60 μM, 20 μM, 6 μM, 2 μM, 600 nM, 200 nM, 0 nM drug solution, shake to make it fully mixed. The control group was prepared with cabozantinib using the same solvent and method.
(§2) After preparation, add 1 μl of drug solution to each well of the 96 well plate, and then add 100 μl of culture medium. Repeat each dose three times. Gently shake to allow the cells and medication to come into full contact and incubate in the incubator for 72 hours. 72 hours later, remove and color with CCK-8 reagent kit. Add 20 μl of CCK-8 reagent to each well, gently shake well, and incubate in the incubator for 1 hour. After 1 hour, remove and measure the absorbance of each well using an enzyme-linked immunosorbent assay (ELISA) reader at a wavelength of 450 nm.
(§3) According to the formula: Cell growth inhibition rate=[1−(absorbance of experimental group absorbance of culture medium control group)/(absorbance of blank control group−absorbance of culture medium control group)]×100%. It can be concluded that the compound has the ability to inhibit the growth of gastric cancer cells at the current dose and time.
(§4) Draw a graph based on the gradient of concentration and use GraphPad Prism 9 software (GraphPad Software, La Jolla, CA) to calculate the maximum inhibitory concentration (IC50) at 50%.
(§5) Referring to steps 1 and 2 of this embodiment, the inhibitory effect of the compound of the present invention on the growth of cancer cells and the degradation effect of target proteins were measured, and the following results were obtained (see Table 2 below).
(§6) The growth inhibitory effects of the compound of the present invention on tumor cell lines MKN45 and SNU5 were measured. The activity is expressed as half inhibitory concentration (C50). The results are shown in Table 2 below; When the half inhibitory concentration is less than or equal to 100 nM, the compound activity is labeled as “++++”; When the half inhibitory concentration is greater than 100 nM and less than 500 nM, the compound activity is labeled as […] and less than 1000 nM, the compound activity is labeled as “++”; When the half inhibitory concentration is greater than 1000 nM and less than 3000 nM, the compound activity is marked as “+”; When the half inhibitory concentration is greater than 3000 nM, the compound activity is marked as […]

MKN45 = assay: Growth inhibition of gastric cancer cells MKN45 (CCK-8); details: Homo sapiens, MKN-45, half inhibitory concentration, 72 hours
Description: as §1, §2, §3, §4, §5, §6

DDR1, sequence (Q08345 19-913): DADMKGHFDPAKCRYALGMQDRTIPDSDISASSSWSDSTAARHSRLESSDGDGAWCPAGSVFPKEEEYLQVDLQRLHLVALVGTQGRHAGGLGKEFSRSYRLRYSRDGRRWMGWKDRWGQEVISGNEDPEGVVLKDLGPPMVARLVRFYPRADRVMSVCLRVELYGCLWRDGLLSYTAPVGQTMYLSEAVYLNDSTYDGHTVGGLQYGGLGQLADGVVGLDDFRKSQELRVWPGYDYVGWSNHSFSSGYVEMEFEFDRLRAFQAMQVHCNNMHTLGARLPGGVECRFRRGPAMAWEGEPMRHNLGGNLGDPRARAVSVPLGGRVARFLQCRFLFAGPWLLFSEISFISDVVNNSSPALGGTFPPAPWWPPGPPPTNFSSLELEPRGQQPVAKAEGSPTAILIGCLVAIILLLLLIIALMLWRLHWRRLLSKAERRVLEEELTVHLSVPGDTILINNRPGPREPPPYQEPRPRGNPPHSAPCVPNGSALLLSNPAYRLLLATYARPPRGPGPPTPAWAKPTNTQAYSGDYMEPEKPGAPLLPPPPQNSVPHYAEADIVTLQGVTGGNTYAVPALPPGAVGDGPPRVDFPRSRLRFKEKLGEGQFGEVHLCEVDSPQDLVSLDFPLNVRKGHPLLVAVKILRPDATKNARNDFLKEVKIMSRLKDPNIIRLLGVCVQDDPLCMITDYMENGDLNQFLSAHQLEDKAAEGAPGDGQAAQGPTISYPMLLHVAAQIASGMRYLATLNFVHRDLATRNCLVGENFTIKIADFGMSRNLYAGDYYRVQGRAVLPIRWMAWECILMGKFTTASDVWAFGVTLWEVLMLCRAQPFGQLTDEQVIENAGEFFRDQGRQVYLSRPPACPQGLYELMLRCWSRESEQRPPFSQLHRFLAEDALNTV

| Dmax (DDR1) | IC50 (SNU5) | IC50 (MKN45) | Structure (SMILES) |
| --- | --- | --- | --- |
| 65 to 75% | 0.1 to 0.5 µM | 0.1 to 0.5 µM | COc1cc2c(Oc3ccc(NC(=O)C4(C(=O)Nc5ccc(F)cc5)CC4)cc3)ccnc2cc1COCCN1CCN(C(=O)CNc2cccc3c2C(=O)N(C2CCC(=O)NC2=O)C3=O)CC1 (stereo not drawn) [TPD5317] |
| 65 to 75% | 0.1 to 0.5 µM | 0.1 to 0.5 µM | COc1cc2c(Oc3ccc(NC(=O)C4(C(=O)Nc5ccc(F)cc5)CC4)cc3)ccnc2cc1N1CCC(C(=O)N[C@H](C(=O)N2C[C@H](O)C[C@H]2C(=O)NCc2ccc(-c3scnc3C)cc2)C(C)(C)C)CC1 [TPD5409] |
| 65 to 75% | 0.1 to 0.5 µM | 0.5 to 1 µM | Cc1ncsc1-c1ccc(CNC(=O)[C@@H]2C[C@@H](O)CN2C(=O)[C@@H](NC(=O)CCN2CCC(COc3cnc(-c4cccc(Cn5nc(-c6cccc(C#N)c6)ccc5=O)c4)nc3)CC2)C(C)(C)C)cc1 [TPD10001] |
| 75 to 85% | ≤ 0.1 µM | 0.1 to 0.5 µM | Cc1ncsc1-c1ccc(CNC(=O)[C@@H]2C[C@@H](O)CN2C(=O)[C@@H](NC(=O)CN2CCN(CC3CCN(C(=O)c4ccc(-c5cnc6ncc(Cc7ccc8ncccc8c7)n6n5)cc4F)CC3)CC2)C(C)(C)C)cc1 [TPD9004] |
| 75 to 85% | 0.5 to 1 µM | 1 to 3 µM | COc1cc2c(Oc3ccc(NC(=O)C4(C(=O)Nc5ccc(F)cc5)CC4)cc3)ccnc2cc1N1CCC(C(=O)NCCCCC(=O)N[C@H](C(=O)N2C[C@H](O)C[C@H]2C(=O)NCc2ccc(-c3scnc3C)cc2)C(C)(C)C)CC1 [TPD5453] |
| 65 to 75% | 0.1 to 0.5 µM | 0.1 to 0.5 µM | COc1cc2c(Oc3ccc(NC(=O)C4(C(=O)Nc5ccc(F)cc5)CC4)cc3)ccnc2cc1N1CCC(OCCC(=O)N[C@H](C(=O)N2C[C@H](O)C[C@H]2C(=O)NCc2ccc(-c3scnc3C)cc2)C(C)(C)C)CC1 [TPD5412] |
| 75 to 85% | 0.5 to 1 µM | 0.1 to 0.5 µM | COc1cc2c(Oc3ccc(NC(=O)C4(C(=O)Nc5ccc(F)cc5)CC4)cc3)ccnc2cc1N1CCC(CN2CCC(OCC(=O)N[C@H](C(=O)N3C[C@H](O)C[C@H]3C(=O)NCc3ccc(-c4scnc4C)cc3)C(C)(C)C)CC2)CC1 [TPD5407] |
| 75 to 85% | 0.5 to 1 µM | 0.1 to 0.5 µM | COc1cc2c(Oc3ccc(NC(=O)C4(C(=O)Nc5ccc(F)cc5)CC4)cc3)ccnc2cc1NC(=O)CN1CCN(CC2CCN(c3ccc4c(c3)C(=O)N(C3CCC(=O)NC3=O)C4=O)CC2)CC1 (stereo not drawn) [TPD5746] |
| 65 to 75% | 0.1 to 0.5 µM | 0.1 to 0.5 µM | COc1cc2c(Oc3ccc(NC(=O)C4(C(=O)Nc5ccc(F)cc5)CC4)cc3)ccnc2cc1N1CCC(C(=O)N2CCC(C(=O)N[C@H](C(=O)N3C[C@H](O)C[C@H]3C(=O)NCc3ccc(-c4scnc4C)cc3)C(C)(C)C)CC2)CC1 [TPD5436] |
| > 85% | ≤ 0.1 µM | ≤ 0.1 µM | COc1cc2c(Oc3ccc(NC(=O)C4(C(=O)Nc5ccc(F)cc5)CC4)cc3)ccnc2cc1N1CCC(CN2CCN(CCNc3cccc4c3C(=O)N(C3CCC(=O)NC3=O)C4=O)CC2)CC1 (stereo not drawn) [TPD5972] |
| 65 to 75% | ≤ 0.1 µM | ≤ 0.1 µM | COc1cc2c(Oc3ccc(NC(=O)C4(C(=O)Nc5ccc(F)cc5)CC4)cc3)ccnc2cc1N1CCC(CN2C[C@@H]3C[C@H]2CN3CC(=O)Nc2cc3c(cn2)C(=O)N(C2CCC(=O)NC2=O)C3)CC1 (stereo partly drawn) [TPD12100] |
| 65 to 75% | 0.1 to 0.5 µM | 0.1 to 0.5 µM | COc1cc2c(Oc3ccc(NC(=O)C4(C(=O)Nc5ccc(F)cc5)CC4)cc3)ccnc2cc1NC(=O)CCN1CCC(CN2CCN(c3ccc4c(c3)C(=O)N(C3CCC(=O)NC3=O)C4=O)CC2)CC1 (stereo not drawn) [TPD5734] |

| Structure (SMILES) | Dmax (DDR1) | IC50 (SNU5) | IC50 (MKN45) |
| --- | --- | --- | --- |
| COc1cc2c(Oc3ccc(NC(=O)C4(C(=O)Nc5ccc(F)cc5)CC4)cc3)ccnc2cc1N1CCC(CN2C3CC2CN(CCC=Cc2cc4c(cn2)C(=O)N(C2CCC(=O)NC2=O)C4)C3)CC1 (stereo not drawn) [TPD12238] | 65 to 75% | ≤ 0.1 µM | ≤ 0.1 µM |
| O=C1CCC(N2Cc3c(C#CCCN4CC5CC(C4)N5CC4CCN(c5cc6nccc(Oc7ccc(NC(=O)C8(C(=O)Nc9ccc(F)cc9)CC8)cc7)c6cc5OC(F)(F)F)CC4)cccc3C2=O)C(=O)N1 (stereo not drawn) [TPD12150] | 65 to 75% | 0.1 to 0.5 µM | ≤ 0.1 µM |
| O=C1CCC(N2Cc3cc(NCCN4C5CC4CN(CC4CCN(c6cc7nccc(Oc8ccc(NC(=O)C9(C(=O)Nc%10ccc(F)cc%10)CC9)cc8)c7cc6F)CC4)C5)ncc3C2=O)C(=O)N1 (stereo not drawn) [TPD12086] | 75 to 85% | ≤ 0.1 µM | 0.1 to 0.5 µM |
| COc1cc2c(Oc3ccc(NC(=O)C4(C(=O)Nc5ccc(F)cc5)CC4)cc3)ccnc2cc1N1CCC(CN2C[C@H]3C[C@@H]2CN3CCC(=O)Nc2cc3c(cn2)C(=O)N(C2CCC(=O)NC2=O)C3)CC1 (stereo partly drawn) [TPD12110] | 75 to 85% | ≤ 0.1 µM | ≤ 0.1 µM |
| COc1cc2c(Oc3ccc(NC(=O)C4(C(=O)Nc5ccc(F)cc5)CC4)cc3)ccnc2cc1N1CCC(CN2CC3CC(C2)N3CCCNc2cc3c(cn2)C(=O)N(C2CCC(=O)NC2=O)C3)CC1 (stereo not drawn) [TPD12118] | 65 to 75% | ≤ 0.1 µM | ≤ 0.1 µM |
| COc1cc2c(Oc3ccc(NC(=O)C4(C(=O)Nc5ccc(F)cc5)CC4)cc3)ccnc2cc1N1CCC(CN2C[C@H]3C[C@@H]2CN3CCCNc2cc3c(cn2)C(=O)N(C2CCC(=O)NC2=O)C3)CC1 (stereo partly drawn) [TPD12116] | 75 to 85% | ≤ 0.1 µM | ≤ 0.1 µM |
| COc1cc2c(Oc3ccc(NC(=O)C4(C(=O)Nc5ccc(F)cc5)CC4)cc3)ccnc2cc1N1CCC(CN2C3CC2CN(CCC(=O)Nc2cc4c(cn2)C(=O)N(C2CCC(=O)NC2=O)C4)C3)CC1 (stereo not drawn) [TPD12112] | 65 to 75% | ≤ 0.1 µM | ≤ 0.1 µM |
| COc1cc2c(Oc3ccc(NC(=O)C4(C(=O)Nc5ccc(F)cc5)CC4)cc3)ccnc2cc1N1CCC(CN2CCN(CCNc3nccc4c3CN(C3CCC(=O)NC3=O)C4=O)C(=O)C2)CC1 (stereo not drawn) [TPD12068] | 65 to 75% | ≤ 0.1 µM | ≤ 0.1 µM |
